The conditions of series [1]: humans, extract from hops containing 0.25 mg 8PN; cited from earlier work.
Series [2] has as its system Ishikawa cells. As to the kind of experiment: Sulforhodamine B (SRB) cell viability assay. The series is classed as cell-based, human. Particulars: for cytotoxicity at highest applied concentration / Onset of cytotoxicity (lowest observed effect level), LOEL: Ishikawa cells; for cytotoxicity at highest applied concentration: 48 h; for Onset of cytotoxicity (lowest observed effect level), LOEL: 48 h incubation, at least three independent SRB assays. As to the method: To ensure that effects observed in ALP assays were not caused by cytotoxicity, SRB cell viability assays were carried out in parallel. As with estrogenicity assays, 10,000 cells/well were seeded in 96-well plates, allowed to grow for 48 h and incubated with test solutions for another 48 h. Afterwards, cells were fixed by addition of 50% (v/v) trichloroacetic acid and 1 h incubation at 4°C. After 2 times washing with tab water and 2 times of washing with 1% (v/v) acetic acid, plates were dried overnight, incubated with SRB reagent for 45 min, washed twice with water, twice with 1% acetic acid and again dried overnight. Lastly, 10 mM TRIS base buffer was added to dissolve protein-bound SRB and the absorbance of each well was measured at 570 nm with a PerkinElmer Victor 3V^TM plate reader.
To ensure non-cytotoxicity and thus to exclude false reporting anti-estrogenic effects, SRB cell viability assays were carried out in parallel (Ishikawa cells, 48 h incubation) to ALP assays. The single pesticides Dic, End, Fen and Met caused cytotoxic effects at high concentrations, with the lowest observed effect doses reported in Table 3. iX lead to a loss of cellular protein at the highest applied dose of 100 μM, a concentration which was however not applied in ALP assays.
On the technique in general: The SRB assay estimates cell density from bound dye.

For series [3], the system named is ER-dependent induction of ALP expression in Ishikawa cells. As to the kind of experiment: Alkaline phosphatase (ALP) assay for estrogenicity. The series is classed as cell-based, human. Particulars: for lowest concentration inducing ALP expression (starting from): single compound; for plateau of enzymatic (ALP) activity: relative to 1 nM E2 = 100%. The source says: In the present study, five exemplary pesticides (Figure 1B) were selected based on at least one published report of them acting as ER agonists, among them the publicly discussed herbicide glyphosate (GLP). Alkaline phosphatase (ALP) expression in Ishikawa cells was used as a natural reporter gene system for estrogenicity. On the contrary to some other in vitro test systems, this human endometrial cancer cell line expresses both, ER-α and ER-β, and thus facilitates the observation of interactions between chemicals acting as agonists to different receptor isoforms ([22]). Measuring the ALP-catalyzed conversion rate of 4-nitrophenyl phosphate to 4-nitrophenol as a marker for enzyme expression and thus ER activation, the test compounds were tested individually and in combination to generally address the concern of cumulative effects within this class of pesticides. To enable a direct comparison of effect strength, the same test system was used to determine the estrogenicity of a mixture of the most important hop polyphenols, resembling their respective concentration ratios in beer. Lastly, the two mixtures were combined in different ratios to assess potential combinatory effects toward ER activation.
ALP assays were performed as recently described ([23]). Briefly, 10,000 Ishikawa cells per well were seeded in 96-well plates and allowed to attach for 48 h in assay medium (phenol red - free DMEM/F-12 supplemented with 1% (v/v) CD-FBS and 1% (v/v) P/S). Stock solutions were prepared by solving test compounds in DMSO, which were then diluted to the test concentrations in assay medium, resulting in a final DMSO concentration of 0.1–0.2% (v/v) (depending on the number of mixed compounds in incubation solutions, but consistently reflected by the same concentration in the respective solvent control). Cells were incubated with incubation solutions containing the test compounds or combinations thereof for another 48 h. Subsequently, cells were washed with PBS and lyzed by shock-freezing. ALP activity was determined by monitoring the conversion of 4-nitrophenyl phosphate to 4-nitrophenol photometrically at 405 nm with a PerkinElmer Victor 3V^TM plate reader. The slope of the obtained dose-response curves was taken as a measure for the ER-dependent induction of ALP expression.
In brief, this method uses the mass-action law-derived median-effect equation (MDEE) to linearize dose-response curves of single compounds and combinations thereof. Subsequently, it facilitates the calculation of a parameter (the CI) which is indicative for the type and strength of a combinatory effect. […] To apply the model to ALP assay data, the latter were normalized to both, the solvent control and the positive control (1 nM E2, 100% effect). MDEE fitting and CI calculations were carried out using the CISNE tool ([26]) and MS Excel. Corresponding graphs and all further statistical calculations (normal distribution, one-way ANOVA, etc.) were carried out in Origin® 2020.

A short description of series [4]: Pharmacokinetics of 8PN in humans receiving an extract from hops. The series is classed as in vivo. The settings on record: consumption of 0.5–1 L of average-hopped beer, assuming linear kinetics. The source says: (§1) An often-used justification for discarding endocrine disrupting phytoestrogens in beer as a health concern is that the low bioavailability of hop polyphenols would limit systemically achieved doses to non-hazardous concentrations. At first sight, this notion seems to be supported by pharmacokinetic studies. […] This might partially result from the additional formation of 8PN from the naturally co-occurring iX, the most prevalent prenylflavonoid in beer ([24]), within the human gut ([18]) and liver ([31]). This reaction should be regarded as a metabolic activation due to the much higher estrogenicity of the reaction product. Assuming linear kinetics, the consumption of 0.5–1 L of average-hopped beer (Table 2) could result in systemic 8PN concentrations around 0.5 nM, a dose sufficient to cause significant estrogenicity in our in vitro test system (Figure 2).

The subject of series [5] is MCF-7 breast cancer cells. Also on record: method as in PMID 28711546. The settings on record: cited from earlier work.
For series [6], the system named is ER-dependent induction of ALP expression in Ishikawa cells. Further details: method as in PMID 30283786. Particulars: cited from earlier work.
On the set-up of series [7]: method as in PMID 24038952. The settings on record: humans, 20 mg of XN; cited from earlier work.
Series [8] has as its system Ishikawa cells. Particulars: cited from earlier work.
Series [9] can be described thus: Human intervention study, pharmacokinetics of XN. The series is classed as in vivo. Particulars: plasma, 20 mg, estimated from CMax/AUC assuming standard physiological parameters, read-out: bioavailability (rough estimate).
From the text: as §1

Setting [10] is: Ishikawa cells, 48 h, scaled to 1 nM E2 = 100%.

“Also recorded” adds a separate entry of the source. A value given as a limit tells only on which side of the number the result lay.

For orientation: AUC means concentration integrated over time. By Cmax is commonly meant the peak of the concentration-time curve. With `CC(C)=CCc1c(O)cc(O)c2c1O[C@H](c1ccc(O)cc1)CC2=O` [8PN, 8-prenylnaringenin], in [1], the AUC was 24.3 ± 8.9 ng·h/mL, the CMax is 1.4 ± 0.3 µg/L and the Cmax is 3.8 nM. Moreover, the “cytotoxicity at highest applied concentration” value in the series with Ishikawa cells [2] (500 nM) is given as “no cytotoxicity”. The “ED50 of ALP induction” value in series [3] (setting [10]) is reported as 2.44 ± 1.60 nM. Further, in series [3] (Ishikawa cells, 48 h), the “lowest concentration inducing ALP expression (starting from)” value came out at 0.5 nM. Besides, in series [3], the “plateau of enzymatic (ALP) activity” value is “about 75%”. In addition, the estimated systemic concentration result in [4] was “around 0.5 nM”.

Regarding `OC(c1ccc(Cl)cc1)(c1ccc(Cl)cc1)C(Cl)(Cl)Cl` [Dic, dicofol], the “Onset of cytotoxicity (lowest observed effect level), LOEL” value (“Onset of cytotoxicity” for short) in the series on Ishikawa cells [2] was found to be 50 µM. In addition, the “lowest concentration inducing ALP expression (starting from)” value in series [3] (Ishikawa cells, 48 h) amounted to 10 nM.

As for `O=S1OCC2C(CO1)C1(Cl)C(Cl)=C(Cl)C2(Cl)C1(Cl)Cl` (stereo not shown) [End, endosulfan], the “Onset of cytotoxicity” value with Ishikawa cells [2] turned out to be 50 µM. The “lowest concentration inducing ALP expression (starting from)” value in [3] (Ishikawa cells, 48 h) was 5 nM. Besides, the “ED50 of ALP induction” value in [3] (calculated with the CISNE tool) was 12300 ± 2900 nM.

As for `OC(c1ccc(Cl)cc1)(c1cncnc1)c1ccccc1Cl` (stereo not shown) [Fen, fenarimol], the “Onset of cytotoxicity” value in the series on Ishikawa cells [2] turned out to be 100 µM. In addition, the “lowest concentration inducing ALP expression (starting from)” value in series [3] (Ishikawa cells, 48 h) amounted to 2.5 nM.

Take `O=C(O)CNCP(=O)(O)O` [Glp, glyphosate]: the “concentration causing estrogen-like growth stimulation” value in series [5] is no less than 59 µM. The cytotoxicity result in the series with Ishikawa cells [2] (concentrations up to 300 μM) was “neither ER-mediated gene expression nor cytotoxicity”. Besides, the “cytotoxicity at highest applied concentration” value with Ishikawa cells [2] (up to 500 μM) was “no cytotoxicity”. For the same compound, in series [3] (concentrations up to 300 μM), the “ER-mediated gene expression (ALP)” value is recorded as “neither ER-mediated gene expression nor cytotoxicity; also recorded: did not act estrogenic”.

Consider `C[C@]12CC[C@@H]3c4ccc(O)cc4C[C@@H](CCCCCCCCC[S+]([O-])CCCC(F)(F)C(F)(F)F)[C@H]3[C@@H]1CC[C@@H]2O` (stereo partly shown) [ICI 182,780, fulvestrant, reference compound], for which, in series [3] (co-incubation with active concentrations of the compounds), the “effect of co-incubation on estrogenicity of active compounds” value is on record as “suppression of estrogenicity”.

Consider `CNC(=O)Oc1cc(C)c(SC)c(C)c1` [Met, methiocarb], for which the “Onset of cytotoxicity” value with Ishikawa cells [2] turned out to be 100 µM. The “lowest concentration inducing ALP expression (starting from)” value in series [3] (Ishikawa cells, 48 h) is recorded as 10 nM.

As a reminder, the bioavailability is the share of a dose that reaches the circulation, judged against a reference dose that is usually intravenous. As to `COc1cc(O)c(CC=C(C)C)c(O)c1C(=O)/C=C/c1ccc(O)cc1` [XN, xanthohumol], the “estrogenicity in this test system” value in series [6] is listed as “not to act estrogenic”. Also, in [7], the “area under the curve (AUC)” value is 92 ± 68 ng·h/mL and the “peak plasma concentration (CMax)” value is 33 ± 7 µg/L. Moreover, the “cytotoxicity in this experimental setup” value with Ishikawa cells [8] was “non-cytotoxicity”. For the same compound, the bioavailability in [9] was roughly 2%.

Regarding `COc1cc(O)c(CC=C(C)C)c2c1C(=O)CC(c1ccc(O)cc1)O2` (stereo not shown) [iX, isoxanthohumol], the “Onset of cytotoxicity” value with Ishikawa cells [2] came out at 100 µM. For the same compound, in series [3] (setting [10]), the “ED50 of ALP induction” value is given as 342 ± 125 nM. The “lowest concentration inducing ALP expression (starting from)” value in series [3] (Ishikawa cells, 48 h) is 100 nM. In addition, the “plateau of enzymatic (ALP) activity” value in series [3] is on record as “about 75%”.

Values taken from article PMC8215115, “Systemically Achievable Doses of Beer Flavonoids Induce Estrogenicity in Human Endometrial Cells and Cause Synergistic Effects With Selected Pesticides” (Frontiers in Nutrition, 2021).
